This passage reports EC50 results from patent US11661431B2, “Thienopyrrole compounds” (Gilead Sciences, Inc., priority 2021, dated 2023).

One assay concerns the target TLR7 (Homo sapiens (Human), UniProt Q9NYK1). As to the kind of experiment: TLR7 human peripheral blood mononuclear cell (PBMC) cell-based assay (GS-986 as agonist; IL-6 and IFNα readout). Conditions: human PBMCs, TLR7 agonist GS-986 at 400 nM, 6 hours, antagonist potency; read-out: TLR-7 EC50. Put shortly: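 Human PBMCs (100,000 cells/well) preincubated 1 h at 37 °C with antagonist in 10-point dose response, then stimulated with TLR7 agonist for a further 6 h at 37 °C, 5% CO2. Supernatant IL-6 and IFNα measured by electrochemiluminescence immunoassay.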

The target of a further assay is TLR8 (Homo sapiens (Human), UniProt Q9NR97). As to the kind of experiment: TLR8 human peripheral blood mononuclear cell (PBMC) cell-based assay (Compound A as agonist; TNFα and IL12p40 readout). Conditions: human PBMCs, TLR8 agonist Compound A at 800 nM, 6 hours, antagonist potency; read-out: TLR-8 EC50.

Some results are limits rather than exact numbers.

TLR8, sequence (Q9NR97 27-1041): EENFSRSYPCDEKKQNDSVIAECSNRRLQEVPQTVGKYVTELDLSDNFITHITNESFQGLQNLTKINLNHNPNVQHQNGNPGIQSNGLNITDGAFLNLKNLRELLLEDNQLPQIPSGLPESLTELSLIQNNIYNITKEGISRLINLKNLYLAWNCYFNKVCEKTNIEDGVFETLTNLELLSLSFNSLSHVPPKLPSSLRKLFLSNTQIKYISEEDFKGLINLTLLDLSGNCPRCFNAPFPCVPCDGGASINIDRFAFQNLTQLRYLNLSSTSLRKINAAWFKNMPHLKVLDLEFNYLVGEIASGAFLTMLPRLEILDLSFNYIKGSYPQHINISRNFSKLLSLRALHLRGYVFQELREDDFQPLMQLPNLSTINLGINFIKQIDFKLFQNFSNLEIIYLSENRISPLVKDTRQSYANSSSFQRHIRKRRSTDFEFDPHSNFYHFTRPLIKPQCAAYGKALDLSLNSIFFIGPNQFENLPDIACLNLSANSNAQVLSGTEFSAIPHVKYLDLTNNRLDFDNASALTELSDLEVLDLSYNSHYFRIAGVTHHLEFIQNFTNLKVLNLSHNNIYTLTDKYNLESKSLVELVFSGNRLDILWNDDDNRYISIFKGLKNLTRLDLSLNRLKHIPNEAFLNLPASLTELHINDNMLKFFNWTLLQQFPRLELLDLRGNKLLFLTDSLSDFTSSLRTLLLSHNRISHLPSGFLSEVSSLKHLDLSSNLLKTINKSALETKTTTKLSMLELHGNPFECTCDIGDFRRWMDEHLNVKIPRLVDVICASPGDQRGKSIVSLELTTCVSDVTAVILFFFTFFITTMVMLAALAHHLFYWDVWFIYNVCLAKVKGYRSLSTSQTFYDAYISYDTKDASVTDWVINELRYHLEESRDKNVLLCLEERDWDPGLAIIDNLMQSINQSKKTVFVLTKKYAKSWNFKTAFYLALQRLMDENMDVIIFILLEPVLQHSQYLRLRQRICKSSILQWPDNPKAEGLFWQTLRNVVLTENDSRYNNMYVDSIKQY
TLR7, sequence (Q9NYK1 27-1049): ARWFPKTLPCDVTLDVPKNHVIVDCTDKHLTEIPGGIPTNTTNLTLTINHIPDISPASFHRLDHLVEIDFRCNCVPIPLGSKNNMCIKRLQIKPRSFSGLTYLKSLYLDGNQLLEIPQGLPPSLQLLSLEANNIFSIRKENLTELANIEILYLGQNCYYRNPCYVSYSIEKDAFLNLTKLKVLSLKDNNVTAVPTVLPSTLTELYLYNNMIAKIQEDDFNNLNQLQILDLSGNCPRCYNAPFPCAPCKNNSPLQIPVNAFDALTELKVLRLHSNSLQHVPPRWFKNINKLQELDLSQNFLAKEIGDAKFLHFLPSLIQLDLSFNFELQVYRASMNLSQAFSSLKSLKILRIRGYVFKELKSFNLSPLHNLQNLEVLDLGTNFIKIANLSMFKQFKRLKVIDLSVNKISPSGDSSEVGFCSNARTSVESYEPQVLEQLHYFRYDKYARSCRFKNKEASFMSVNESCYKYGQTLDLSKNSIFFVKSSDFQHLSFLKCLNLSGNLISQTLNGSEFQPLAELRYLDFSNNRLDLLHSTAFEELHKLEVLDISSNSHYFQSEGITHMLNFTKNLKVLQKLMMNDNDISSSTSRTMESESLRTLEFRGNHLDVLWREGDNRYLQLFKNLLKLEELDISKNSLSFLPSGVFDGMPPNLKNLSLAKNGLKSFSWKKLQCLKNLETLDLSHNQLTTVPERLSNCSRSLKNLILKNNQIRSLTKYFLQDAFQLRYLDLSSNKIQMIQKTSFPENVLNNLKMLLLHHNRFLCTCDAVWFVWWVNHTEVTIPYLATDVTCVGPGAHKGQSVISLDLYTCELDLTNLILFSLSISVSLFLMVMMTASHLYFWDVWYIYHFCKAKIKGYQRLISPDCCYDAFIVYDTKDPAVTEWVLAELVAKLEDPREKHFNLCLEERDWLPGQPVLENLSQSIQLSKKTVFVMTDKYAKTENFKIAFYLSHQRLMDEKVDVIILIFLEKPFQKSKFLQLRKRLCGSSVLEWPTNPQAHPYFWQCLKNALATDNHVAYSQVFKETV

As for `Cc1c(-c2[nH]c3sc(C4C[C@@H]5C[C@H]4CN5CC(=O)N4CCC4)c(C)c3c2C(C)C)cn2ncnc2c1C` (some centres unmarked) [Example 268], the EC50 (in general, the concentration needed to bring the measured effect to its halfway point) at TLR7 is less than 0.05 nM; at TLR8, 0.24 nM.

In the case of `Cc1c(-c2[nH]c3sc([C@@H]4C[C@@H]5C[C@H]4CN5CC(=O)N[C@H]4C[C@@H](O)C4)c(C)c3c2C(C)C)cn2ncnc2c1C` [Example 269], the EC50 was found to be 0.3 nM on TLR7 and 0.28 nM at TLR8.

Regarding `Cc1c(-c2[nH]c3sc([C@@H]4C[C@@H]5C[C@H]4CN5CC(=O)N[C@H]4C[C@H](O)C4)c(C)c3c2C(C)C)cn2ncnc2c1C` [Example 270], the EC50 at TLR7 turned out to be 0.64 nM; at TLR8, 0.59 nM.

`Cc1c(-c2[nH]c3sc([C@@H]4C[C@@H]5C[C@H]4CN5CC(=O)NC45CC(O)(C4)C5)c(C)c3c2C(C)C)cn2ncnc2c1C` [Example 271]: the EC50 amounted to 0.49 nM on TLR7 and 0.12 nM at TLR8.

As to `COCCNC(=O)CN1C[C@@H]2C[C@H]1C[C@H]2c1sc2[nH]c(-c3cn4ncnc4c(C)c3C)c(C(C)C)c2c1C` [Example 272], the EC50 stood at 2.13 nM at TLR7 and 1.19 nM on TLR8.

Regarding `Cc1c(-c2[nH]c3sc([C@@H]4C[C@@H]5C[C@H]4CN5CC(=O)NC[C@@H](F)C(C)(C)O)c(C)c3c2C(C)C)cn2ncnc2c1C` [Example 273], the half-maximal effective concentration (EC50) at TLR7 was found to be 1.24 nM; on TLR8, 1.01 nM.

In the case of `Cc1c(-c2[nH]c3sc([C@@H]4C[C@@H]5C[C@H]4CN5CC(=O)NC4COC4)c(C)c3c2C(C)C)cn2ncnc2c1C` [Example 274], the concentration giving a half-maximal response (EC50) on TLR7 turned out to be 1.54 nM; at TLR8, 1.23 nM.

On to `Cc1c(-c2[nH]c3sc([C@H]4C[C@@H]5C[C@H]4CN5)c(C)c3c2C(C)C)cn2ncnc2c1C` [Example 275, 2-((1S,4R,5S)-2-azabicyclo[2.2.1]heptan-5-yl)-5-(7,8-dimethyl-[1,2,4]triazolo[1,5-a]pyridin-6-yl)-4-isopropyl-3-methyl-6H-thieno[2,3-b]pyrrole], for which the EC50 on TLR7 came to 0.4 nM; at TLR8, 2.91 nM.

Take `CCc1c(C2CCNCC2)sc2[nH]c(-c3cc(C)c4ncnn4c3)c(C(C)C)c12` [Example 277]: the EC50 stood at 0.06 nM on TLR7 and 20.1 nM on TLR8.

Take `Cc1c(CC2CCNCC2)sc2[nH]c(-c3cc(C)c4ncnn4c3)c(C(C)C)c12` [Example 278]: the EC50 at TLR7 turned out to be 0.17 nM; at TLR8 it was 0.8 nM.

Regarding `Cc1c(-c2[nH]c3sc(C4CCN(C(=O)[C@H]5CO[C@H](C)CN5)CC4)c(C)c3c2C(C)C)cn2ncnc2c1C` [Example 279, [4-[5-(7,8-dimethyl-[1,2,4]triazolo[1,5-a]pyridin-6-yl)-4-isopropyl-3-methyl-6H-thieno[2,3-b]pyrrol-2-yl]-1-piperidyl]-[(3R,6R)-6-methylmorpholin-3-yl]methanone], the results for the EC50 at TLR7 and at TLR8 were 0.54 nM and 13.6 nM, respectively.

On to `Cc1c(-c2[nH]c3sc(C4CCN(C(=O)[C@H]5CO[C@@H](C)CN5)CC4)c(C)c3c2C(C)C)cn2ncnc2c1C` [Example 280], for which the EC50 on TLR7 was found to be 1.96 nM; at TLR8, 41.2 nM.

Take `Cc1c(-c2[nH]c3sc(C4CCN(C(=O)[C@@H]5NCCO[C@H]5C)CC4)c(C)c3c2C(C)C)cn2ncnc2c1C` [Example 281]: the EC50 was 2.17 nM at TLR7 and 13.8 nM at TLR8.

Turning to `Cc1c(-c2[nH]c3sc(C4CCN(C(=O)[C@@H]5CC(F)(F)CCN5)CC4)c(C)c3c2C(C)C)cn2ncnc2c1C` [Example 282], the EC50 is 1.19 nM at TLR7 and 19.5 nM on TLR8.

Regarding `Cc1c(-c2[nH]c3sc(C4CCN(C(=O)C5COC(C(F)(F)F)CN5)CC4)c(C)c3c2C(C)C)cn2ncnc2c1C` (centres unmarked) [Example 283], the EC50 on TLR7 was determined as 2.65 nM; at TLR8 it was 139 nM.

Take `Cc1c(-c2[nH]c3sc(C4CCN(C(=O)[C@H]5C[C@@H](C(F)(F)F)CCN5)CC4)c(C)c3c2C(C)C)cn2ncnc2c1C` [Example 284]: the half-maximal effective concentration (EC50) on TLR7 is 0.32 nM; on TLR8 it was 4.91 nM.

Turning to `Cc1c(-c2[nH]c3sc(C4CCN(C(=O)[C@H]5CO[C@@H](C(F)(F)F)CN5)CC4)c(C)c3c2C(C)C)cn2ncnc2c1C` [Example 285], the figures for the EC50 on TLR7 and at TLR8 were 3.2 nM and 129 nM, respectively.

Take `Cc1c(-c2[nH]c3sc(C4CCN(C5CCCNC5=O)CC4)c(C)c3c2C(C)C)cn2ncnc2c1C` (centres unmarked) [Example 286, 3-[4-[5-(7,8-dimethyl-[1,2,4]triazolo[1,5-a]pyridin-6-yl)-4-isopropyl-3-methyl-6H-thieno[2,3-b]pyrrol-2-yl]-1-piperidyl]piperidin-2-one]: the EC50 amounted to 0.94 nM on TLR7 and 9.39 nM on TLR8.

For `Cc1c(-c2[nH]c3sc(C4CCN(C5CCNC5=O)CC4)c(C)c3c2C(C)C)cn2ncnc2c1C` (centres unmarked) [Example 287, 3-[4-[5-(7,8-dimethyl-[1,2,4]triazolo[1,5-a]pyridin-6-yl)-4-isopropyl-3-methyl-6H-thieno[2,3-b]pyrrol-2-yl]-1-piperidyl]pyrrolidin-2-one], the figures for the concentration for a half-maximal effect (EC50) on TLR7 and on TLR8 were 0.43 nM and 12.4 nM, respectively.

With `Cc1c(-c2[nH]c3sc(C4CCN(C5CCN(C)C5=O)CC4)c(C)c3c2C(C)C)cn2ncnc2c1C` (centres unmarked) [Example 288], the EC50 at TLR7 is 2.74 nM; at TLR8 it was 22.6 nM.

In the case of `Cc1c(-c2[nH]c3sc(C4CCN(CC5CCN(C)C5=O)CC4)c(C)c3c2C(C)C)cn2ncnc2c1C` (centres unmarked) [Example 289], the EC50 on TLR7 came out at 0.72 nM; at TLR8, 2.33 nM.

Regarding `Cc1c(-c2[nH]c3sc([C@@H]4C[C@@H]5C[C@H]4CN5C4CCS(=O)(=O)C4)c(C)c3c2C(C)C)cn2ncnc2c1C` (stereo partly drawn) [Example 294, 3-[(1S,4R)-5-[5-(7,8-dimethyl-[1,2,4]triazolo[1,5-a]pyridin-6-yl)-4-isopropyl-3-methyl-6H-thieno[2,3-b]pyrrol-2-yl]-2-azabicyclo[2.2.1]heptan-2-yl]thiolane 1,1-dioxide], the EC50 at TLR7 stood at 0.71 nM; at TLR8, 2.77 nM.

As to `Cc1c(-c2[nH]c3sc(C4CCN(C(=O)[C@H]5C[C@@]6(CN(CCO)CCO6)C5)CC4)c(C)c3c2C(C)C)cn2ncnc2c1C` [Example 295, [4-[5-(7,8-dimethyl-[1,2,4]triazolo[1,5-a]pyridin-6-yl)-4-isopropyl-3-methyl-6H-thieno[2,3-b]pyrrol-2-yl]-1-piperidyl]-[8-(2-hydroxethyl)-5-oxa-8-azaspiro[3.5]nonan-2-yl]methanone], the EC50 at TLR7 worked out at 0.06 nM; at TLR8, 18.5 nM.

Turning to `Cc1c(-c2[nH]c3sc(C4CCN(C(=O)[C@H]5C[C@@]6(CN(C)CCO6)C5)CC4)c(C)c3c2C(C)C)cn2ncnc2c1C` [Example 296, [4-[5-(7,8-dimethyl-[1,2,4]triazolo[1,5-a]pyridin-6-yl)-4-isopropyl-3-methyl-6H-thieno[2,3-b]pyrrol-2-yl]-1-piperidyl]-(8-methyl-5-oxa-8-azaspiro[3.5]nonan-2-yl)methanone], the EC50 at TLR7 was less than 0.05 nM; at TLR8 it was 8.94 nM.

For the molecule `Cc1c(-c2[nH]c3sc([C@@H]4C[C@@H]5C[C@H]4CN5C4CC5(CCNC5=O)C4)c(C)c3c2C(C)C)cn2ncnc2c1C` (some centres unmarked) [Example 297], the concentration for a half-maximal effect (EC50) at TLR7 is less than 0.05 nM; on TLR8, 0.61 nM.

Consider `Cc1c(-c2[nH]c3sc(C4CCN(C(=O)[C@H]5C[C@@]6(CN(CC(F)F)CCO6)C5)CC4)c(C)c3c2C(C)C)cn2ncnc2c1C` [Example 298, [8-(2,2-difluoroethyl)-5-oxa-8-azaspiro[3.5]nonan-2-yl]-[4-[5-(7,8-dimethyl-[1,2,4]triazolo[1,5-a]pyridin-6-yl)-4-isopropyl-3-methyl-6H-thieno[2,3-b]pyrrol-2-yl]-1-piperidyl]methanone], for which the EC50 at TLR7 is less than 0.05 nM; at TLR8, 12.2 nM.

Consider `Cc1c(-c2[nH]c3sc(C4CCC(N5CC6(CCNC6=O)C5)CC4)c(C)c3c2C(C)C)cn2ncnc2c1C` (centres unmarked) [Example 299, 2-[4-[5-(7,8-dimethyl-[1,2,4]triazolo[1,5-a]pyridin-6-yl)-4-isopropyl-3-methyl-6H-thieno[2,3-b]pyrrol-2-yl]cyclohexyl]-2,6-diazaspiro[3.4]octan-5-one], for which the values for the EC50 on TLR7 and at TLR8 were 0.1 nM and 2.17 nM, respectively.

On to `Cc1c(-c2[nH]c3sc(C4CCC(N5CC6(CCO6)C5)CC4)c(C)c3c2C(C)C)cn2ncnc2c1C` (centres unmarked) [Example 300], for which the concentration giving a half-maximal response (EC50) on TLR7 turned out to be 0.22 nM; at TLR8, 1.85 nM.

With `Cc1c(-c2[nH]c3sc(C4CCC(N5CC6(C5)CS(=O)(=O)C6)CC4)c(C)c3c2C(C)C)cn2ncnc2c1C` (centres unmarked) [Example 301], the 50% effective concentration (EC50) was 0.13 nM at TLR7 and 5.66 nM on TLR8.

For `Cc1c(-c2[nH]c3sc(C4CCC(N5CC[C@H](F)C5)CC4)c(C)c3c2C(C)C)cn2ncnc2c1C` (some centres unmarked) [Example 302], the results for the EC50 at TLR7 and on TLR8 were 0.1 nM and 6.4 nM, respectively.

As for `Cc1c(-c2[nH]c3sc(C4CCC(N5CC[C@@H](F)C5)CC4)c(C)c3c2C(C)C)cn2ncnc2c1C` (some centres unmarked) [Example 303], the values for the concentration for a half-maximal effect (EC50) on TLR7 and on TLR8 were less than 0.05 nM and 2.77 nM, respectively.

As for `Cc1c(-c2[nH]c3sc(C4CCC(N5CC(C)(O)C5)CC4)c(C)c3c2C(C)C)cn2ncnc2c1C` (centres unmarked) [Example 304], the EC50 at TLR7 was less than 0.05 nM; on TLR8, 1.76 nM.

As to `Cc1c(-c2[nH]c3sc([C@@H]4C[C@@H]5C[C@H]4CN5CCS(=O)(=O)CCO)c(C)c3c2C(C)C)cn2ncnc2c1C` [Example 307, 2-((2-((1S,4R,5R)-5-(5-(7,8-dimethyl-[1,2,4]triazolo[1,5-a]pyridin-6-yl)-4 isopropyl-3-methyl-6H-thieno[2,3-b]pyrrol-2-yl)-2-azabicyclo[2.2.1]heptan-2-yl)ethyl)sulfonyl)ethan-1-ol], the EC50 on TLR7 came to 0.21 nM; at TLR8, 0.25 nM.

For `Cc1c(-c2[nH]c3sc([C@@H]4C[C@@H]5C[C@H]4CN5C(CO)CO)c(C)c3c2C(C)C)cn2ncnc2c1C` [Example 308, 2-((1S,4R,5R)-5-(5-(7,8-dimethyl-[1,2,4]triazolo[1,5-a]pyridin-6-yl)-4 isopropyl-3-methyl-6H-thieno[2,3-b]pyrrol-2-yl)-2-azabicyclo[2.2.1]heptan-2-yl)propane-1,3-diol], the EC50 on TLR7 was less than 0.05 nM; at TLR8 it was 1.16 nM.
